In patent US10975068B2, “6-aminopyridin-3-yl thiazoles as modulators of RORγT” (Janssen Pharmaceutica NV, priority 2016, dated 2021):
Where two headings read alike, the source gives them in different places.

How the values were obtained:
[1] = biological target: full-length human RORγt (Homo sapiens (Human), UniProt P51449); test: RORγt (full-length human) reporter assay, Conditions B or C; type: cell-based; conditions: for inhibition at 3 µM: at 3 μM compound concentration; for inhibition at 3 µM / inhibition at 1 µM: read-out: RORγt (FL) Reporter Assay B or C, % inhibition; for RORγt (FL) Reporter Assay B or C, % inhibition (value marked *): marked *: footnote not given; for inhibition at 1 µM: at 1 μM compound concentration
In short: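 Readout is dual luciferase: firefly (GAL4-driven) normalized to DMSO-only and saturating-reference controls, then to CMV-Renilla. Full-length human RORγt fused to GAL4-DBD was transiently expressed in HEK293T; compound exposure ran overnight (16-20 h) starting 4-6 h after transfection, final FBS 1.3%, DMSO 0.1%.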

[2] = biological target: human RORγt ligand binding domain (RORγt LBD) (Homo sapiens (Human), UniProt P51449); test: RORγt ThermoFluor® assay (thermal shift binding); conditions: read-out: ThermoFluor® Assay, Kd
In short: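 Binding was inferred from thermal stabilisation (ΔTm) of the E. coli-expressed RORγt LBD (0.065 mg/mL), monitored by 1,8-ANS (60 μM) emission at 500 nm during a 1 °C/min ramp. Buffer was Hepes 100 mM pH 7.0 with NaCl, GSH and Tween-20.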

[3] = read-out: RORγt (FL) Reporter Assay B or C, IC50
[4] = Conditions B or C, read-out: RORγt (FL) Reporter Assay B or C, IC50

Sequence of full-length human RORγt (P51449 other isoform, or with tags, fused parts or gaps): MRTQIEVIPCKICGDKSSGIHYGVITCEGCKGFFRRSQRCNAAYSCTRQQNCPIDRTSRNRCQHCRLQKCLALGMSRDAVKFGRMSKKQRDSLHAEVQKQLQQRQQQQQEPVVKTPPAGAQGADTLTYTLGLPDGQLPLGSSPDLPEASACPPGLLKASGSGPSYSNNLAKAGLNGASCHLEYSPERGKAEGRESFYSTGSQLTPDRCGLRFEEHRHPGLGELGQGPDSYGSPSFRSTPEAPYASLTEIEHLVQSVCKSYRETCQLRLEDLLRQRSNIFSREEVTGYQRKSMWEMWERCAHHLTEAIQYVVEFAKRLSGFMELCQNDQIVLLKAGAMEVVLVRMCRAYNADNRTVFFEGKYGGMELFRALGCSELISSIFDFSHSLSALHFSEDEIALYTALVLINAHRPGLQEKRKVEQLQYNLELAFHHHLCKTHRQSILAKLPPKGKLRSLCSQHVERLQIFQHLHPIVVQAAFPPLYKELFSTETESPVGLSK
Sequence of human RORγt ligand binding domain (RORγt LBD) (P51449 other isoform, or with tags, fused parts or gaps): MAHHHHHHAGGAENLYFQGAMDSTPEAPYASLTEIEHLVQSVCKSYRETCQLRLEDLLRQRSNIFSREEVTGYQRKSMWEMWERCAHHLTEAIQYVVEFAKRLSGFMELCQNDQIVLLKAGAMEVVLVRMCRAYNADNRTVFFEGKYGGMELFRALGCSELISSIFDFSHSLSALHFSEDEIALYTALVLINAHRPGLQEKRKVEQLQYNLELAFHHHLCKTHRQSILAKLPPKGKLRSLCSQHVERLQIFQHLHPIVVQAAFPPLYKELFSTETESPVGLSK

Row | inhibition at 3 µM [1] [%] | IC50 [1, 3] [µM] | Kd [2] [nM] | RORγt (FL) Reporter Assay B or C, % inhibition (value marked ***) ([1]; Conditions B or C, marked ***: footnote not given) | IC50 [1, 4] [µM] | RORγt (FL) Reporter Assay B or C, % inhibition (value marked *) ([1]; Conditions B or C) | inhibition at 1 µM [1] [%] | SMILES | IC50 ([1]; RORγt (FL) Reporter Assay B or C, IC50 (μM), Conditions B or C) [µM]
1 | 119 | 0.015 | 2.5 | – | – | – | – | C[C@H]1CCCN1C(=O)c1nc(C(=O)NCC(C)(O)C(F)(F)F)sc1-c1cnc(NC(C)(C)C)cc1C(F)(F)F (single isomer, unassigned) [Example 358, 5-(6-(tert-Butylamino)-4-(trifluoromethyl)pyridin-3-yl)-4-((S)-2-methylpyrrolidine-1-carbonyl)-N—((S*)-3,3,3-trifluoro-2-hydroxy-2-methylpropyl)thiazole-2-carboxamide] | –
2 | 107 | 0.016 | 0.25 | – | – | – | – | C[C@H]1CCCN1C(=O)c1nc(C(=O)NC2CCS(=O)(=O)CC2)sc1-c1cnc(NC(C)(C)C)cc1C(F)(F)F [Example 254, 5-[6-(tert-Butylamino)-4-(trifluoromethyl)-3-pyridyl]-N-(1,1-dioxothian-4-yl)-4-[(2S)-2-methylpyrrolidine-1-carbonyl]thiazole-2-carboxamide] | –
3 | – | – | 6.4 | – | 0.025 | 95* % | – | C[C@H](CO)NC(=O)c1nc(C(=O)N2CCC[C@@H]2C)c(-c2cnc(NC(C)(C)C)cc2C(F)F)s1 [Example 148, 5-(6-(tert-Butylamino)-4-(difluoromethyl)-3-pyridyl)-N-((1R)-2-hydroxy-1-methyl-ethyl)-4-((2S)-2-methylpyrrolidine-1-carbonyl)thiazole-2-carboxamide] | –
4 | 96 | 0.079 | 0.37 | – | – | – | – | CC[C@H](Nc1cc(C(F)F)c(-c2sc(C(=O)NC3CCS(=O)(=O)CC3)nc2C(=O)N2CC(F)(F)C[C@@H]2C)cn1)C(F)(F)F [Example 426, 4-[(2S)-4,4-Difluoro-2-methyl-pyrrolidine-1-carbonyl]-5-[4-(difluoromethyl)-6-[[(1S)-1-(trifluoromethyl)propyl]amino]-3-pyridyl]-N-(1,1-dioxothian-4-yl)thiazole-2-carboxamide] | –
5 | 106 | 0.028 | 8.1 | – | – | – | – | C[C@H]1CCCN1C(=O)c1nc(C(=O)N2CC(O)C2)sc1-c1cnc(NC(C)(C)C)cc1C(F)(F)F [Example 250, [5-[6-(tert-Butylamino)-4-(trifluoromethyl)-3-pyridyl]-2-(3-hydroxyazetidine-1-carbonyl)thiazol-4-yl]-[(2S)-2-methylpyrrolidin-1-yl]methanone] | –
6 | – | – | 2.4 | – | 0.015 | 99* % | – | CC[C@@H](Nc1cc(C(F)F)c(-c2sc(C(=O)N[C@@H](C)C(C)(C)O)nc2C(=O)N2CCC[C@@H]2C)cn1)C(F)(F)F [Example 230] | –
7 | 107 | 0.0057 | 4 | – | – | – | – | CC(C)[C@@H](C)NC(=O)c1nc(C(=O)N2CCC[C@@H]2C)c(-c2cnc(NC(C)(C)C)cc2C(F)(F)F)s1 [Example 341, 5-[6-(tert-Butylamino)-4-(trifluoromethyl)-3-pyridyl]-N-[(1R)-1,2-dimethylpropyl]-4-[(2S)-2-methylpyrrolidine-1-carbonyl]thiazole-2-carboxamide] | –
8 | 94 | 0.035 | 47 | – | – | – | – | C[C@H]1CCCN1C(=O)c1nc(C(=O)NC2CN(C)C2)sc1-c1cnc(NC(C)(C)C)cc1C(F)(F)F [Example 356, 5-[6-(tert-Butylamino)-4-(trifluoromethyl)-3-pyridyl]-N-(1-methylazetidin-3-yl)-4-[(2S)-2-methylpyrrolidine-1-carbonyl]thiazole-2-carboxamide] | –
9 | – | 0.064 | 1 | – | – | – | 98 | C[C@H](Nc1cc(C(F)F)c(-c2sc(C(=O)NC3CCS(=O)(=O)CC3)nc2C(=O)N2CC(F)(F)C[C@@H]2C)cn1)C(F)(F)F [Example 421, 4-[(2S)-4,4-Difluoro-2-methyl-pyrrolidine-1-carbonyl]-5-[4-(difluoromethyl)-6-[[(1S)-2,2,2-trifluoro-1-methyl-ethyl]amino]-3-pyridyl]-N-(1,1-dioxothian-4-yl)thiazole-2-carboxamide] | –
10 | – | – | 0.41 | – | 0.014 | 112* % | – | C[C@H]1CCCN1C(=O)c1nc(C(=O)NCC(C)(C)O)sc1-c1cnc(NC(C)(C)C(F)(F)F)cc1C(F)(F)F [Example 132, (S)—N-(2-Hydroxy-2-methylpropyl)-4-(2-methylpyrrolidine-1-carbonyl)-5-(6-((1,1,1-trifluoro-2-methylpropan-2-yl)amino)-4-(trifluoromethyl)pyridin-3-yl)thiazole-2-carboxamide] | –

Second part, the compound before the results:

Row | SMILES | inhibition at 3 µM [1] [%] | IC50 [1, 3] [µM] | Kd [2] [nM] | RORγt (FL) Reporter Assay B or C, % inhibition (value marked ***) ([1]; Conditions B or C, marked ***: footnote not given) | IC50 [1, 4] [µM] | RORγt (FL) Reporter Assay B or C, % inhibition (value marked *) ([1]; Conditions B or C) | inhibition at 1 µM [1] [%] | IC50 ([1]; RORγt (FL) Reporter Assay B or C, IC50 (μM), Conditions B or C) [µM]
11 | CC[C@H](Nc1cc(C(F)F)c(-c2sc(C(=O)N[C@@H](C)C(C)(C)O)nc2C(=O)N2CC(F)(F)C[C@@H]2C)cn1)C(F)(F)F [Example 246, 4-[(2S)-4,4-Difluoro-2-methyl-pyrrolidine-1-carbonyl]-5-[4-(difluoromethyl)-6-[[(1S)-1-(trifluoromethyl)propyl]amino]-3-pyridyl]-N-[(1S)-2-hydroxy-1,2-dimethyl-propyl]thiazole-2-carboxamide] | – | – | 1.3 | 112*** % | 0.011 | – | – | –
12 | CC(C)(O)CNC(=O)c1nc(C(=O)N2C3CCC2CC3)c(-c2cnc(NC(C)(C)C)cc2C(F)(F)F)s1 [Example 79, 4-((1s,4s)-7-Azabicyclo[2.2.1]heptane-7-carbonyl)-5-(6-(tert-butylamino)-4-(trifluoromethyl)pyridin-3-yl)-N-(2-hydroxy-2-methylpropyl)thiazole-2-carboxamide] | – | – | 1.2 | – | 0.0083 | 111* % | – | –
13 | CC(C)(C)CNc1cc(C(F)(F)F)c(-c2sc(C(=O)NCC(C)(C)O)nc2C(=O)N2C3CCC2CC3)cn1 [Example 84, 4-((1s,4s)-7-Azabicyclo[2.2.1]heptane-7-carbonyl)-N-(2-hydroxy-2-methylpropyl)-5-(6-(neopentylamino)-4-(trifluoromethyl)pyridin-3-yl)thiazole-2-carboxamide] | – | – | 1.2 | – | 0.018 | 136* % | – | –
14 | C[C@H]1CC(F)(F)CN1C(=O)c1nc(C(=O)N[C@H](C)C(C)(C)O)sc1-c1cnc(NC(C)(C)C)cc1C(F)F [Example 256, 5-[6-(tert-Butylamino)-4-(difluoromethyl)-3-pyridyl]-4-[(2S)-4,4-difluoro-2-methyl-pyrrolidine-1-carbonyl]-N-[(1R)-2-hydroxy-1,2-dimethyl-propyl]thiazole-2-carboxamide] | 123 | 0.02 | 1.7 | – | – | – | – | –
15 | CC[C@H](Nc1cc(C(F)(F)F)c(-c2sc(C(=O)N[C@@H]3COC[C@H]3O)nc2C(=O)N2C3CCC2CC3)cn1)C(F)(F)F [Example 155] | – | – | 1.1 | – | – | 103* % | – | 0.0058
16 | C[C@H]1CCCN1C(=O)c1nc(C(=O)NCC(C)(C)O)sc1-c1cnc(NCC2(C(F)(F)F)CC2)cc1C(F)F [Example 276, 5-[4-(Difluoromethyl)-6-[[1-(trifluoromethyl)cyclopropyl]methylamino]-3-pyridyl]-N-(2-hydroxy-2-methyl-propyl)-4-[(2S)-2-methylpyrrolidine-1-carbonyl]thiazole-2-carboxamide] | – | 0.016 | 6.1 | – | – | – | 118 | –
17 | C[C@H]1CC(F)(F)CN1C(=O)c1nc(C(=O)NC2COCC2O)sc1-c1cnc(NC2(C)CCC2)cc1C(F)(F)F (stereo partly drawn) [Example 182, 4-((S)-4,4-Difluoro-2-methylpyrrolidine-1-carbonyl)-N-(cis-4-hydroxytetrahydrofuran-3-yl)-5-(6-((1-methylcyclobutyl)amino)-4-(trifluoromethyl)pyridine-3-yl)thiazole-2-carboxamide] | – | – | 0.12 | – | 0.0081 | 99* % | – | –
18 | C[C@H]1CCCN1C(=O)c1nc(C(=O)N[C@H]2C[C@H](O)C2)sc1-c1cnc(NC2(C)CCC2)cc1C(F)F [Example 323, 5-(4-(Difluoromethyl)-6-((1-methylcyclobutyl)amino)pyridin-3-yl)-N-((1r,3S)-3-hydroxycyclobutyl)-4-((S)-2-methylpyrrolidine-1-carbonyl)thiazole-2-carboxamide] | – | 0.15 | 8.2 | – | – | – | 97 | –
19 | C[C@H]1CCCN1C(=O)c1nc(C(=O)NCC(C)(C)O)sc1-c1cnc(NCC(C)(C)C)cc1C(F)F [Example 113, (S)-5-(4-(Difluoromethyl)-6-(neopentylamino)pyridin-3-yl)-N-(2-hydroxy-2-methylpropyl)-4-(2-methylpyrrolidine-1-carbonyl)thiazole-2-carboxamide] | – | – | 6 | – | 0.063 | 110* % | – | –
20 | C[C@H]1CCCN1C(=O)c1nc(C(=O)NCC2(O)COC2)sc1-c1cnc(NC2CCCC2)cc1C(F)F [Example 73, (S)-5-(6-(Cyclopentylamino)-4-(difluoromethyl)pyridin-3-yl)-N-((3-hydroxyoxetan-3-yl)methyl)-4-(2-methylpyrrolidine-1-carbonyl)thiazole-2-carboxamide] | – | – | 11 | – | 0.074 | 104* % | – | –
